This is an account of results in patent US20250281496A1, “METHODS OF TREATING NEUROPATHY USING FORETINIB AND COMPOSITIONS THEREOF” (INDIANA UNIVERSITY RESEARCH AND TECHNOLOGY CORPORATION, priority 2022, published 2025).

“Also recorded” adds a separate entry of the source.

Experiment [1] has as its system experimental diabetic neuropathy. Put plainly: Three-dimensional assessment of cutaneous innervation (volumetric nerve fiber density) in STZ-diabetic mice. It counts as in vivo. As to conditions: 30 mg/kg oral daily; 5 weeks post-STZ; non-treated 44.9%, vehicle 37.8%. Here is the method: In total, 20 mice were injected with 100 mg/kg bodyweight of streptozotocin (STZ, […], Sigma Aldrich) in 0.1M citrate buffer (pH 4.5) on two consecutive days respectively, to induce diabetes type 1^27. Prior to the first injection and in weekly intervals thereafter, all animals were weighted and underwent tail prick blood sugar measurements using a clinical grade monitoring system (Contour One, Ascensia Diabetes Care, Mississauga, Ontario) as previously described. Mice were considered diabetic when blood glucose was at least 15 mmol/L (270 mg/dl). Prior to diabetes induction the mice were block randomized into experimental groups (n=10 Foretinib treatment, n=5 vehicle treatment, n=5 non-treated diabetic control). An additional 5 non-diabetic animals served as a healthy control. Foretinib treatments started 1-week post-diabetes induction. Foretinib was prepared fresh daily by dissolving 6 mg Foretinib in 1 ml of 1% (Hydroxypropyl)-methyl cellulose (09963, Sigma Aldrich) and 0.2% sodium dodecyl sulfate ([…], Sigma Aldrich) in sterile H2O. […] Cutaneous nerve fibers were semiautomatically traced using batch processing with consistent fluorescence intensity thresholds across the entire data set. Volumetric nerve fiber density was determined as total nerve fiber volume per skin tissue volume for an 830×830×200 μm region of interest.

Experiment [2] relates to Embryonic rat sensory neurons. Put plainly: Myelination in cultured embryonic rat sensory neurons (MBP-positive area). Format: cell-based. The following applies: primary wt neuronal/SC co-cultures, 10 days since induction of myelination, n=4, p<0.0001. An excerpt:
A) Embryonic rat sensory neurons were harvested, dissociated and cultured. Myelination was induced in presence of Foretinib (right image) or vehicle only (left image). 10 days since induction of myelination the cultures were fixed and immunosatined for myelin basic protein (MBP) (green), bIII-tubulin (red) and DAPI (blue). Scale bar: […]. B) Quantitative representation of the area proportion occupied by MBP-positive myelin segments (as in A) n=4, p<0.0001.

For a further experiment, the system named is Rat sympathetic neurons. Put plainly: NGF withdrawal in compartmented cultures of sympathetic neurons. Format: cell-based. Here is the method:
A) Rat sympathetic neurons grown in compartmented cultures for one week in the presence of NGF were switched into the indicated conditions for 48 h and immunostained for βIII-tubulin (white). Schematics on the left show the configurations used. In the top panels, NGF was maintained in all compartments. In the center and bottom panels, NGF was withdrawn from all compartments. At the bottom panel and 500 nM foretinib (Foret) added to one of the sides and the center compartment. Fluorescence images show βIII-tubulin-positive axons in the sides compartment. At the right, enlarged images of the axons per condition. While the NGF deprived neurons degenerated (axonal beading and degradation in the central panel), Foretinib supplemented (lower panel) axons kept growing Red arrow at the top of the image indicates the distance of the axonal extension during 48 h since NGF withdrawal. Size bar: […].B) MNs were differentiated from healthy human iPS (Line ID 1016A)^62 as described^63. 3 day old MNs were treated with either 1 μM of Thapsigargin (Thaps) or 1 μM Tunicamycin (Tuni) and/or with either 0.5 uM of Foretinib. […] C) Quantitative representation of the results as in B. Error bars represent standard error; *p<0.05; ***p<0.005; t-test. […] E) Quantitative representation of changes in mouse body weight in dependence of the indicated IP daily doses of Foretinib. […]

Turning to `COc1cc2c(Oc3ccc(NC(=O)C4(C(=O)Nc5ccc(F)cc5)CC4)cc3F)ccnc2cc1OCCCN1CCOCC1` [Foretinib, N1-[3-Fluoro-4-({6-methoxy-7-[3-(morpholin-4-yl)propoxy]quinolin-4-yl}oxy)phenyl]-N′1-(4-fluorophenyl)cyclopropane-1,1-dicarboxamide], the “cutaneous nerve fiber density as % of non-diabetic reference” value in experiment [1] worked out at 67.3%. Also, in experiment [2], the “axonal myelination (area proportion of MBP-positive myelin segments)” value is reported as “significantly improved axonal myelination”. The “axonal growth after NGF withdrawal” value with Rat sympathetic neurons (500 nM foretinib in center and one side compartment, 48 h, preliminary n=2) is “induced axonal growth, similarly to the NGF containing cultures; also recorded: greater axonal length of the neurons than neurons cultured with NGF”. For the same compound, the “cell body and axonal survival after NGF withdrawal” value with Rat sympathetic neurons (500 nM foretinib, 48 hours post NGF withdrawal) is “supported cell bodies and axonal survival”.
